ChEMBL document CHEMBL2016507, “Prospective acetylcholinesterase inhibitory activity of indole and its analogs” (Bioorg Med Chem Lett, 2012)

Molecular target: Acetylcholinesterase (Electrophorus electricus, UniProt O42275)
Experiment: Inhibition of electric eel AChE using acetylcholine iodide as substrate measured every 5 sec for 2 mins by Ellman's method

Chain of Acetylcholinesterase (Electrophorus electricus, UniProt O42275) (O42275 whole entry): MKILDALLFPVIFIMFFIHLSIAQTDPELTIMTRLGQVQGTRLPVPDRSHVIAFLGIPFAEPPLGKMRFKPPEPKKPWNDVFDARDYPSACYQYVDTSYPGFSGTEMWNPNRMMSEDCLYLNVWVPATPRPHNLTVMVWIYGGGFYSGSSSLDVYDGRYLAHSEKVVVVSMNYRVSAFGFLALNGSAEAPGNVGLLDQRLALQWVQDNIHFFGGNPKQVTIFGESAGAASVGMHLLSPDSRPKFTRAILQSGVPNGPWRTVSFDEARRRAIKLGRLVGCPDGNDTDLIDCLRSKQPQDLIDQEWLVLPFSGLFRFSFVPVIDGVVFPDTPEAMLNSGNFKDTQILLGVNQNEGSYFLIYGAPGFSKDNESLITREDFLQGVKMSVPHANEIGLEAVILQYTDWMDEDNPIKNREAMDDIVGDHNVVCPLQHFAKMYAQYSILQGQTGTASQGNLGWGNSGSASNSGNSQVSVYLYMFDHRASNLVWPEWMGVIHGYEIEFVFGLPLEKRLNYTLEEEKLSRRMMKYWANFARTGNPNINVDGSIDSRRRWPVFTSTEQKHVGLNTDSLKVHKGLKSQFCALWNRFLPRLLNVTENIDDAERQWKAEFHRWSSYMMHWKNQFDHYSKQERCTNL

Row | Compound | IC50 [µM]
1 | COc1ccc2[nH]c3c(c2c1)CCNC3 | 227
2 | c1ccc2c3c([nH]c2c1)CNCC3 [TRYPTOLINE] | 97.1
3 | Cc1nccc2c1[nH]c1ccccc12 [HARMAN] | 20.9
4 | COc1ccc2c(ccc[n+]2C)c1 | 7.67
5 | COc1ccc2c(c1)[nH]c1c(C)nccc12 [HARMINE] | 22.9
6 | CC1=NCCc2c1[nH]c1cc(O)ccc21 [HARMALOL] | 11.3
7 | COc1ccc2c3c([nH]c2c1)C(C)=NCC3 [HARMALINE] | 4.9
8 | COc1ccc2c(ccc[n+]2Cc2ccccc2)c1 | 2.46
9 | Cc1nccc2c1[nH]c1cc(O)ccc12 | 8.02

Molecular target: Acetylcholinesterase (Electrophorus electricus) (UniProt O42275)
Experiment: Inhibition of electric eel AChE using acetylcholine iodide as substrate at 6.2 X 10^-4 M measured every 5 sec for 2 mins by Ellman's method

Chain of Acetylcholinesterase (Electrophorus electricus) (O42275 24-633 limits assumed): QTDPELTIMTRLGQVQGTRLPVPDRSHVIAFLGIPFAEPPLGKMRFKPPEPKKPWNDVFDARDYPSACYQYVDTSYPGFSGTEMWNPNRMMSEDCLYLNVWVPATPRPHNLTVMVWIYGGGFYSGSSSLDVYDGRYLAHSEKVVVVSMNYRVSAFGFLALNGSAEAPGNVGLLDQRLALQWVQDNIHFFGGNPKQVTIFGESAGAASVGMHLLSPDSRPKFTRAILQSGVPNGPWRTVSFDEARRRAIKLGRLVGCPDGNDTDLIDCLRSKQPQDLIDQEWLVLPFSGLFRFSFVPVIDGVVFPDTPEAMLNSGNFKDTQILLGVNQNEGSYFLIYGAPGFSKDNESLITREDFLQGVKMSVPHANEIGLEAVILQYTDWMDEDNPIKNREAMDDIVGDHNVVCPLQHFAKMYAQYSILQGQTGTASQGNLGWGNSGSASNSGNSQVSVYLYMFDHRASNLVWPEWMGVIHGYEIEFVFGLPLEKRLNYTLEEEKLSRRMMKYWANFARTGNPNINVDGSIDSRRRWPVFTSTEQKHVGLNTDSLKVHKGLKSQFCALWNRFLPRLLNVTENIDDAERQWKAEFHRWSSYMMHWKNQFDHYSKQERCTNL

Row | Compound | inhibition [%]
10 | O=C(O)c1cccc2[nH]ccc12 | 36.8
11 | O=C(O)c1ccc2[nH]ccc2c1 | 29.1
12 | O=C(O)c1ccc2cc[nH]c2c1 | 28.5
13 | O=C(O)c1cccc2cc[nH]c12 | 23.4

Molecular target: T1, Acetylcholinesterase (Homo sapiens, UniProt P22303)
Experiment: Inhibition of human AChE by Ellman's method

T1 sequence (P22303 whole entry): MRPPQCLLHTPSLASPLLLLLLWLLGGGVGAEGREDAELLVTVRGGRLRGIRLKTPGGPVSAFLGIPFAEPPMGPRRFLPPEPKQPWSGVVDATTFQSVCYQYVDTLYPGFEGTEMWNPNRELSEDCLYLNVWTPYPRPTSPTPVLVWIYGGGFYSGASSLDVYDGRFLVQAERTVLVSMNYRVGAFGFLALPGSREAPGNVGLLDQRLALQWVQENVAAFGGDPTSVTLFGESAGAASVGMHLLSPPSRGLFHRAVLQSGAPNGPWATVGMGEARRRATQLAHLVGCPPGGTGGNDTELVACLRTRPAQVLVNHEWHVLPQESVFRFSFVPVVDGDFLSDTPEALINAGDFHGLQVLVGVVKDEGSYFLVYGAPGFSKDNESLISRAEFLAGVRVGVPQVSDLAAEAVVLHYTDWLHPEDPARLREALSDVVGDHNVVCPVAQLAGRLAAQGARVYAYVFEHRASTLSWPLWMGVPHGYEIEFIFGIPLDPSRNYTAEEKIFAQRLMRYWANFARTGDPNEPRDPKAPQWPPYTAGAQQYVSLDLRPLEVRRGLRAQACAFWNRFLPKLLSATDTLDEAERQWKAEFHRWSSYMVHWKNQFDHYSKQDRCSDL

Row | Compound | IC50 [µM]
14 | COc1ccc2c(ccc[n+]2C)c1 | 49.7
15 | COc1ccc2c3c([nH]c2c1)C(C)=NCC3 [HARMALINE] | 23.7
16 | COc1ccc2c(ccc[n+]2Cc2ccccc2)c1 | 5.29

Molecular target: T1, Acetylcholinesterase
Experiment: Inhibition of AChE by Ellman's method

Row | Compound | IC50 [µM]
17 | CC[C@H]1C[C@@H]2CN3CCc4c([nH]c5cc([C@H]6C[C@H]7C(C(=O)OC)[C@H](Cc8c6[nH]c6ccccc86)N(C)C[C@H]7CC)ccc45)[C@](C(=O)OC)(C2)[C@H]13 (stereo partly drawn) | 0.071
18 | CC[C@H]1C[C@@H]2C[C@H]3c4[nH]c5cc([C@@H]6C[C@H]7C(C(=O)OC)[C@@H](Cc8c6[nH]c6ccccc86)N(C)C[C@H]7CC)ccc5c4CCN(C2)[C@@H]13 (stereo partly drawn) | 0.227
